From publication PMC5223195, “Novel long-chain compounds with both immunomodulatory and MenA inhibitory activities against Staphylococcus aureus and its biofilm” (Scientific Reports, 2017)
Values after ≈ are worked out from the molar mass of the structure shown. “Also recorded” adds a separate entry of the source. Where two headings read alike, the source gives them in different places.

Assays:
Gram-positive bacteria = test: MIC against Gram-positive bacteria (summary); assay type: cell-based; details: range over all tested Gram-positive bacteria
Experimental: (§1) 96-well plates were seeded with 5 × 10^5 CFU/mL in a volume of 100 μL of tryptic soy broth (TSB) per well for Staphylococcus aureus assays. Compounds were dissolved in DMSO and serially diluted as 1:2 dilutions to give the final concentration ranging from 0.25 to 128 μg/mL per well. […] Plates were incubated at 37 °C for 18–20 hours and MIC was determined by reading OD625. For M.avium and M.abscessus, 7H9 broth media was used for determination of MICs. The final concentration was 5 × 10^5 CFU/mL in each well. The plate was incubated at 37 °C for 7–8 days and MICs were determined using a Tecan microplate reader (OD625) and resazurin reduction assay.

MRSA USA100 = test: MIC against MRSA USA100; assay type: cell-based, Staphylococcus aureus; details: Staphylococcus aureus; TSB, 37 °C, 18–20 hours; read-out: MIC, Staphylococcus aureus isolate USA100
Experimental: as §1

[1] = tested on: Methicillin susceptible Staphylococcus aureus; test: MIC against MSSA; assay type: cell-based; details: MSSA
Experimental: as §1

MRSA USA 200 = test: Menaquinone (MK-4) rescue, resazurin reduction assay, USA 200; assay type: cell-based; details: Staphylococcus aureus, read-out: MIC in the presence of MK-4
Experimental: Resazurin reduction assay was performed in 96-well plate. MRSA was cultured in TSB until OD625 reached 0.4~0.5 and diluted and plated in 96-well plate. […] The plate was incubated overnight at 37 °C followed by 20 μL of resazurin (0.15 mg/mL) was added to each well. The plate was incubated for 2–4 h and fluorescence was measured at 560 nm excitation/590 nm emission.

MRSA USA500 = test: MIC against MRSA USA500; assay type: cell-based, Staphylococcus aureus; details: Staphylococcus aureus; TSB, 37 °C, 18–20 hours; read-out: MIC, Staphylococcus aureus isolate USA500
Experimental: as §1

MRSA USA800 = test: MIC against MRSA USA800; assay type: cell-based, Staphylococcus aureus; details: Staphylococcus aureus; TSB, 37 °C, 18–20 hours; read-out: MIC, Staphylococcus aureus isolate USA800
Experimental: as §1

MRSA USA700 = test: MIC against MRSA USA700; assay type: cell-based, Staphylococcus aureus; details: Staphylococcus aureus; TSB, 37 °C, 18–20 hours; read-out: MIC, Staphylococcus aureus isolate USA700
Experimental: as §1

Mycobacterium avium = test: MIC against Mycobacterium avium; assay type: cell-based; details: 7H9 broth, 7–8 days
Experimental: as §1

Pseudomonas aeruginosa = test: MIC against Pseudomonas aeruginosa; assay type: cell-based; details: read-out: MIC, PA
Enterococcus faecalis = test: MIC against Enterococcus faecalis; assay type: cell-based; details: read-out: MIC, EF
MRSA USA400 = test: MIC against MRSA USA400; assay type: cell-based, Staphylococcus aureus; details: Staphylococcus aureus; TSB, 37 °C, 18–20 hours; read-out: MIC, Staphylococcus aureus isolate USA400
Experimental: as §1

Mycobacterium abscessus = test: MIC against Mycobacterium abscessus; assay type: cell-based; details: Mycobacteroides abscessus, 7H9 broth, 7–8 days
Experimental: as §1

MRSA USA200 = test: MIC against MRSA USA200; assay type: cell-based, Staphylococcus aureus; details: TSB, 37 °C, 18–20 hours; for MIC: Staphylococcus aureus, read-out: MIC, Staphylococcus aureus isolate USA200
Experimental: as §1

MRSA USA300 = test: MIC against MRSA USA300; assay type: cell-based, Staphylococcus aureus; details: Staphylococcus aureus; TSB, 37 °C, 18–20 hours; read-out: MIC, Staphylococcus aureus isolate USA300
Experimental: as §1

MenA = details: previously reported; cited from earlier work
MRSA strains = test: MIC against MRSA strains (summary); assay type: cell-based, Staphylococcus aureus; details: range over MRSA strains
Experimental: as §1

MRSA (USA200) = test: Colony morphology / small colony variant formation on TSA; assay type: cell-based, Staphylococcus aureus; details: USA200 on TSA, 37 °C, up to 96 h (3a 4–16 μg/mL), 72 h (7c, rifampin)
Experimental: MRSA was streaked and then incubated on tryptic soy agar (TSA) containing 0, 2, 4, 8 or 16 μg/mL of inhibitor 3a or 4 μg/mL of 7C or 0.025 μg/mL of rifampin at 37 °C for 96 h. MK-4 (100 μg/mL) was supplemented in TSA containing 8 μg/mL of 3a for the rescue experiment.

TNF-α = TNF-α release from THP-1 macrophages; assay type: cell-based, human; details: concentration equal to MIC, 24 h, 37 °C
Experimental: (§2) THP-1 cells were differentiated into macrophages by treatment with PMA (7.5 ng/mL). Levels of the human cytokines (GM-CSF, IFN-γ, IL-1β, IL-2, IL-4, IL-5, IL-6, IL-8, IL-10, TNF-α) released from THP-1 macrophages were determined using a multiplex kit from Life Technologies according to the manufacturer’s instructions. In brief, the 96 well filter plate was pre-wetted, and then 25 μL of the diluted bead suspension was added to each well and washed twice. 100 μL of samples and standards were added to each well. The plate was incubated at room temperature for 2 h on a shaker. Following washing, biotinylated detection antibody was added and incubated for 1 h. After washing, streptavidin-RPE was added to each well and incubated for 0.5 h. The plate was again washed, resuspended in 100 μL of the washing buffer, and read on the Luminex xMAP™ system (Bio-Rad, AtheNA multi-Lyte™, USA). All samples were run in triplicate and standards were run in duplicate.

MRSA (USA 700) = test: Activity against extracellular MRSA in the presence of human MDMs; assay type: cell-based, Staphylococcus aureus; details: extracellular MRSA USA700, MIC and MIC/4, 24 h
Experimental: Human monocyte-derived macrophages (MDM) were cultured at a concentration of 1 × 10^6 cells/mL/well in a 24 well plate. MRSA (USA 700) was cultured in TSB (10 mL) until OD625 reached 0.4~0.5 and then centrifuged at 14,000 rpm for 10 min. The pellets were resuspended in 10 mL of DMEM supplemented with 10% human serum (no antibiotics). The bacteria medium was diluted with DMEM containing an inhibitor to obtain 1 × 10^6 CFU/mL and added to human MDMs (MOI = 1) in a 24-well plate. After 24 hour infection at 37 °C, the supernatants were serially diluted for CFU determination (TSA plates).

IL-6 = IL-6 release from THP-1 macrophages; assay type: cell-based, human; details: concentration equal to MIC, 24 h, 37 °C
Experimental: as §2

IL-1β = IL-1β release from THP-1 macrophages; assay type: cell-based, human; details: concentration equal to MIC, 24 h, 37 °C
Experimental: as §2

SMILES	MIC values against all Gram-positive bacteria (range) (Gram-positive bacteria)	MIC (MRSA USA100)	MIC [1]	MIC (MRSA USA500)	MIC (MRSA USA800)	MIC (MRSA USA700)	MIC (Mycobacterium avium)	MIC (Pseudomonas aeruginosa)	MIC (Enterococcus faecalis)	MIC (MRSA USA400)	MIC (Mycobacterium abscessus)	MIC (MRSA USA200)	MIC (MRSA USA300)	other results
COc1ccc2ccc(OCCCCCCCCNCCc3ccc(Br)cc3)cc2c1 [3c]	0.5 to 16 µg/mL	6 µg/mL (≈ 12.4 µM)	4 µg/mL (≈ 8.26 µM)	6 µg/mL (≈ 12.4 µM)	6 µg/mL (≈ 12.4 µM)	4 µg/mL (≈ 8.26 µM)	4 µg/mL (≈ 8.26 µM)	> 64 µg/mL	1 µg/mL (≈ 2.06 µM)	4 µg/mL (≈ 8.26 µM)	12 µg/mL (≈ 24.8 µM)	2 µg/mL (≈ 4.13 µM)	4 µg/mL (≈ 8.26 µM)	MIC (MRSA USA 200; USA 200, 0.05 mg/mL MK-4): 16 µg/mL; MIC (MRSA USA 200; USA 200, 0.5 mg/mL MK-4): 64 µg/mL; MIC, Staphylococcus aureus isolate USA200 (MRSA USA200): 2 µg/mL (≈ 4.13 µM)
COc1ccc2ccc(OCCCCCCCCN3CCCCC3)cc2c1 [compound 2]	–	–	16 µg/mL (≈ 43.3 µM)	–	–	16 µg/mL (≈ 43.3 µM)	–	> 64 µg/mL	16 µg/mL (≈ 43.3 µM)	16 µg/mL (≈ 43.3 µM)	–	–	16 µg/mL (≈ 43.3 µM)	M.tb IC50 (inhibition of both M.tb and MenA enzyme activity) (MenA): 5 µg/mL
Fc1ccc(CCNCCCOc2ccc3ccc(OCCCNCCc4ccc(F)cc4)cc3c2)cc1 [7c]	0.5 to 16 µg/mL	3 µg/mL (≈ 5.78 µM)	2 µg/mL (≈ 3.86 µM)	8 µg/mL (≈ 15.4 µM)	4 µg/mL (≈ 7.71 µM)	2 µg/mL (≈ 3.86 µM)	3 µg/mL (≈ 5.78 µM)	> 128 µg/mL	1 µg/mL (≈ 1.93 µM)	1 µg/mL (≈ 1.93 µM)	6 µg/mL (≈ 11.6 µM)	2 µg/mL (≈ 3.86 µM)	3 µg/mL (≈ 5.78 µM)	MICs against MRSA strains (range) (MRSA strains): 1 to 8 µg/mL; induction of small colony variants (SCV) (MRSA (USA200)): did not induce SCV; TNF-α released from THP-1 macrophages (TNF-α): decreased; increase of antibacterial activity compared to activities with MDMs (MRSA (USA 700)): 1.5 – 3 fold; increase of antibacterial activity compared to activities without MDMs (MRSA (USA 700)): 6–12 fold; IL-6 released from THP-1 macrophages (IL-6): decreased; also recorded: significantly reduced; IL-1β released from THP-1 macrophages (IL-1β): stimulated the release
